For one series, the system named is rodent models of NIDDM. The series is described as follows: Rodent models of NIDDM. It is filed as in vivo. The text has this: Rodents that are genetically defective in the leptin pathway are commonly used as animal models of non-insulin dependant diabetes mellitus (NIDDM). db/db mice and ZDF rats develop frank diabetes that progresses to include β-cell failure and the accompanying precipitous drop in plasma insulin levels. […] All three rodent models were used to examine the efficacy of oral dosing with compounds of the invention on diabetes, insulin sensitivity, food consumption and body weight gain.
Mice (obtained from Jackson Laboratory), ZDF rats (obtained from Genetic Models Inc.) and fa/fa rats (obtained from either Charles River, or Harlan) are maintained on 12-hour light/dark cycle. Mice (age 28-42 days) are caged in groups of 5-6. Rats (age 7 weeks) are housed individually. All animals are allowed ad libitum access to water and food (Purina 5015 for mice and 5008 for rats). Compounds are administered at the specified doses by oral gavage on the morning of each day of any experiment. Blood samples are obtained 3 hours after dosing from fed animals under anesthesia and collected into heparinized capillary tubes from the tail vein.

Series [1] has as its system transgenic mice carrying the human apo A-I gene. The series is described as follows: Transgenic mice carrying the human apo A-I gene. In kind it is in vivo. To be noted: transgenic mouse model. The source says:
Mice transgenic for the human apolipoprotein A-I gene (obtained from Jackson Laboratory) are used to evaluate PPARγ mediated effects on high density lipoprotein (HDL) cholesterol. The mice are handled as described above for db/db mice, except that they are fed Purina 5001.

For the next series, the system named is db/db mice. The series is described as follows: db/db mice, oral dosing. To be noted: 7 week old db/db mice, 300 mg/kg by daily oral gavage. It is filed as in vivo, mouse.

Turning to `Cc1cc2c(cc1C1(c3ccc(C(=O)O)cn3)CC1)C(C)(C)CCC2(C)C` [LG100268, 6-[1-(3,5,5,8,8-pentamethyl-5,6,7,8-tetrahydronaphthalen-2-yl)cyclopropyl]nicotinic acid], in the series on rodent models of NIDDM, the Blood glucose levels result is on record as “lower blood glucose levels”, the Thyroid hormone axis entry is recorded as “suppress the thyroid hormone axis” and the Triglycerides result is on record as “raise triglycerides”. Besides, in series [1], the Triglycerides entry is “raises triglycerides”.
In the case of `CN(C)C(=N)N=C(N)N` [metformin], the Plasma glucose result in the series with db/db mice is recorded as “lowers plasma glucose”.

These data come from US20040248919A1, “Fluorinated trienes and their use as rxr modulators” (priority 2001, published 2004).
